Consider 47 compounds from BindingDB's records for patent US20250313563 (The Broad Institute, 2025).

In general, IC50 refers to the concentration that inhibits the measured activity by half.

“And” between values parts separate entries of the source, which are not always exact repeats. Equal values may be shown once.

For assay [1], the target named is Glycogen synthase kinase-3 alpha (Homo sapiens, UniProt P49840). The assay can be described thus: TR-FRET Assay. A digest of the protocol: (§1)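 30 min preinc w/ cpd in assay buffer → kinase rxn → EDTA quench → add detection mix (40 nM SA-d2, 2 nM Tb-pSer641 Ab) → TR-FRET read.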
Glycogen synthase kinase-3 alpha, sequence (P49840 whole entry): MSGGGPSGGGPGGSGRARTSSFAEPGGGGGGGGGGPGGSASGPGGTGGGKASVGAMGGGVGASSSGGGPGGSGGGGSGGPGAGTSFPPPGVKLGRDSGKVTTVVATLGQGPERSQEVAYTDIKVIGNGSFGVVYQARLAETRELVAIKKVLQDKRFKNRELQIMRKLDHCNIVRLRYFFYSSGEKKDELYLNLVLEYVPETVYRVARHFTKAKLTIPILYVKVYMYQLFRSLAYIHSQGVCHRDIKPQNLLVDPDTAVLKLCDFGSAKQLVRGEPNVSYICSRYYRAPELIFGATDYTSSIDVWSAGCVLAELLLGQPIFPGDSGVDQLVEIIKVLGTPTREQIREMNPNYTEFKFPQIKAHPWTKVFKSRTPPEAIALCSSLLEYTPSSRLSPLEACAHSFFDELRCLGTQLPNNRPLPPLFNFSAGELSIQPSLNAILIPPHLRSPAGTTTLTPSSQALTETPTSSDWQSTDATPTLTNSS
A general note: Time-resolved FRET reads energy transfer from a long-lived donor to a nearby acceptor.

For assay [2], the target named is Glycogen synthase kinase-3 beta (Homo sapiens, UniProt P49841). The experiment in a line: TR-FRET Assay. A digest of the protocol: as §1
Glycogen synthase kinase-3 beta, sequence (P49841 whole entry): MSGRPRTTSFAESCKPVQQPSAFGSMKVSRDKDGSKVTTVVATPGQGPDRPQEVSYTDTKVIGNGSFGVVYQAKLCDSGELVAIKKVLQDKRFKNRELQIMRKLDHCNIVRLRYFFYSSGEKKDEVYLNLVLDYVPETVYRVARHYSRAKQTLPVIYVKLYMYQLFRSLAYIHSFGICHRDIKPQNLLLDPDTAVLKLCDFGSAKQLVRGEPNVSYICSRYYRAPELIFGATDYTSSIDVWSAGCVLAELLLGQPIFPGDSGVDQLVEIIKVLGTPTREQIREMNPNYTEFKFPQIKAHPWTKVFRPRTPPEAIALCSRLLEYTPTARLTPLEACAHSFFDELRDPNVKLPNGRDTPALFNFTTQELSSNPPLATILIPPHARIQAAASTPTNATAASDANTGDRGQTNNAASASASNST

Turning to `CCC1(c2cccc(-c3cn(C)nc3C)c2)C2=C(CC(C)(C)NC2=O)NC2N=NC(C(F)(F)F)=C21` (centres undefined) [US20250313563, Compound 947567], the IC50 in assay [1] and in assay [2] was under 100 nM throughout.
`CC[C@@H]1CCN1c1cccc([C@@]2(CC)C3=CN=NC3NC3=C2C(=O)CC(C)(C)C3)c1` (some centres undefined) [US20250313563, Compound 911970]: the results for the IC50 in assay [1] and in assay [2] were under 100 nM and 100 to 1000 nM, respectively.
The matching figures for `CCC1(c2cccc(S(=O)(=O)C3CCOC3)c2)C2=CN=NC2NC2=C1C(=O)CC(C)(C)C2` (centres undefined) [US20250313563, Compound 944018]: under 100 nM and under 100 nM.
On the same counts, the results for `CNC(=O)C1CCC2(CC1)C1=C(N=NC1)NC1=C2C(=O)CC(C)(C)C1` (centres undefined) [US20250313563, Compound 945397] are 100 to 1000 nM and 100 to 1000 nM.
On the same counts, the results for `CCCC(C(C)=O)c1cccc(C2(CC)C3=CN=NC3NC3=C2C(=O)CC(C)(C)C3)c1` (centres undefined) [US20250313563, Compound 909205] are under 100 nM and under 100 nM.
Take `CC[C@]1(c2cccc(C(F)(F)F)c2)C2=CN=NC2NC2=C1C(=O)N(c1cnsc1)CC2` (some centres undefined) [US20250313563, Compound 951733]: the IC50 was under 100 nM in assay [1] and 100 to 1000 nM in assay [2].
On the same counts, the results for `CCC1(c2cccc(N3CCOCC3)c2)C2=C(CC(C)(C)NC2=O)NC2N=NC(C)=C21` (centres undefined) [US20250313563, Compound 947564] are 100 to 1000 nM and 100 to 1000 nM.
The matching figures for `CC[C@]1(c2cccc(N(C)c3cccc(C(C)(F)F)c3)c2)C2=CN=NC2NC2=C1C(=O)CC(C)(C)C2` (some centres undefined) [US20250313563, Compound 927345]: over 5000 nM and over 5000 nM.
On the same counts, the results for `C[C@@H]1C[C@]2(CCN1S(=O)(=O)c1ccn(C)n1)C1=C(N=NC1)NC1=C2C(=O)CC(C)(C)C1` [US20250313563, Compound 917161] are under 100 nM and under 100 nM.
Take `CCC1(c2cccc(CNC)c2)C2=CN=NC2NC2=C1C(=O)CC(C)(C)C2` (centres undefined) [US20250313563, Compound 826651]: the figures for the IC50 in assay [1] and in assay [2] were 1000 to 5000 nM and over 5000 nM, respectively.
On the same counts, the results for `CC[C@]1(c2cccc(-c3cc(C)nn3C)c2)C2=C(N=NC2)NC2=C1C(=O)C(C)(C)C2` [US20250313563, Compound 950827] are over 5000 nM and over 5000 nM.
The matching figures for `O=C1C[C@@H](C(F)(F)F)CC2=C1C1(CCOCC1)C1=C(N=NC1)N2` [US20250313563, Compound 901478]: 100 to 1000 nM and 100 to 1000 nM.
On the same counts, the results for `CCC1(c2cccc(-c3cn(C)nc3C)c2)C2=C(CC(C)(C)NC2=O)NC2N=NC(C)=C21` (centres undefined) [US20250313563, Compound 945460] are under 100 nM and under 100 nM.
Regarding `CC1(C)CC(=O)C2=C(C1)NC1=C(CN=N1)[C@@]21CCO[C@H](C(C)(C)C)C1` [US20250313563, Compound 912107], the IC50 in assay [1] and in assay [2] was over 5000 nM each time.
With `CC[C@H]1C[C@@]2(CCO1)C1=C(N=NC1)NC1=C2C(=O)CC(C)(C)C1` [US20250313563, Compound 924311], the figures for the IC50 in assay [1] and in assay [2] were 100 to 1000 nM and 1000 to 5000 nM, respectively.
The matching figures for `CC(C)(C)CC1N=NC2=C1[C@@](C)(c1cccc(S(=O)(=O)CC3CC3)c1)C1=C(CC(C)(C)NC1=O)N2` (some centres undefined) [US20250313563, Compound 108006]: over 5000 nM and over 5000 nM.
On the same counts, the results for `CC1(C)CC(=O)C2=C(C1)NC1=C(CN=N1)C2(c1ccccc1)c1ccccc1` [US20250313563, Compound 789461] are 1000 to 5000 nM and over 5000 nM.
The matching figures for `CC1(C)CC(=O)C2=C(C1)NC1=C(CN=N1)C21CCN(S(=O)(=O)c2cccc(C(F)(F)F)c2)CC1` [US20250313563, Compound 947244]: under 100 nM and under 100 nM.
As to `CCC1(c2cccc(C(F)(F)F)c2)C2=CN=NC2NC2=C1C(=O)N(c1cc(C)n(C)n1)CC2` (centres undefined) [US20250313563, Compound 950608], the concentration for half-maximal inhibition (IC50) was 100 to 1000 nM in assay [1] and 1000 to 5000 nM in assay [2].
As for `CC1(C)CC(=O)C2=C(C1)NC1N=NC(CC(F)(F)F)=C1[C@]21CCc2c(F)cccc21` (some centres undefined) [US20250313563, Compound 816838], the IC50 in assay [1] and in assay [2] was 100 to 1000 nM each time.
Consider `O=C1CC2(CCCC2)CC2=C1C1(CCOCC1)C1=C(N=NC1)N2` [US20250313563, Compound 893308], for which the IC50 is under 100 nM in assay [1] and 100 to 1000 nM in assay [2].
As for `CC[C@]1(c2cccc(-c3ccnc(C)c3)c2)C2=C(CC(C)(C)CC2=O)NC2N=NC(C(F)(F)F)=C21` (some centres undefined) [US20250313563, Compound 917291], the IC50 in assay [1] is under 100 nM; in assay [2], < 100 nM and 100 to 1000 nM.
On to `CC[C@@]1(c2cccc(OC(C)C)c2)C2=C(CC(C)(C)CC2=O)NC2N=NC(C(F)(F)F)=C21` (some centres undefined) [US20250313563, Compound 947872], for which the IC50 was 100 to 1000 nM in assay [1] and 1000 to 5000 nM in assay [2].
`CC1(C)CC(=O)C2=C(C1)NC1=C(CN=N1)[C@@]21CCN(S(=O)(=O)CC2CC2)C1` [US20250313563, Compound 951724]: the IC50 in assay [1] and in assay [2] was under 100 nM throughout.
`CCC1(c2cccc(C(F)(F)F)c2)C2=CN=NC2NC2=C1C(=O)N(c1ccccc1)CC2` (centres undefined) [US20250313563, Compound 917211]: the IC50 was under 100 nM in assay [1] and 100 to 1000 nM in assay [2].
On the same counts, the results for `CC(C)(C)CC1=C2C(N=N1)NC1=C(C(=O)CC(C)(C)C1)[C@@]21CCCc2ccccc21` (some centres undefined) [US20250313563, Compound 811596] are 1000 to 5000 nM and 100 to 1000 nM.
On the same counts, the results for `CC[C@@]1(c2cccc(C(F)(F)F)c2)C2=CN=NC2NC2=C1C(=O)N(c1ccccc1)CC2` (some centres undefined) [US20250313563, Compound 929475] are over 5000 nM and over 5000 nM.
In the case of `CCC1(c2cccc(-c3cc(C)ncc3C)c2)C2=CN=NC2NC2=C1C(=O)CC(C)(C)C2` (centres undefined) [US20250313563, Compound 913346], the IC50 is under 100 nM in assay [1] and 100 to 1000 nM in assay [2].
`CC(=O)N1CC[C@]2(C1)C1=C(N=NC1)NC1=C2C(=O)CC(C)(C)C1` [US20250313563, Compound 889583]: the IC50 was 1000 to 5000 nM in assay [1] and over 5000 nM in assay [2].
The matching figures for `CC1(C)CC(=O)C2=C(C1)NC1=C(CN=N1)C21CN(C(=O)c2ccccc2)C1` [US20250313563, Compound 893315]: over 5000 nM and over 5000 nM.
The matching figures for `CC[C@@]1(c2ccccc2)C2=CN=NC2NC2=C1C(=O)[C@@H](F)C(C)(C)C2` (some centres undefined) [US20250313563, Compound 957403]: 100 to 1000 nM and 1000 to 5000 nM.
On the same counts, the results for `CC[C@@]1(c2cccc(-c3cnn(C)c3C)c2)C2=C(CC(C)(C)NC2=O)NC2N=NC(C)=C21` (some centres undefined) [US20250313563, Compound 945731] are under 100 nM and under 100 nM.
For `CN1C[C@@]2(C3=C(CC(C)(C)CC3=O)NC3N=NC(C4CC(F)(F)C4)=C32)c2ccccc21` (some centres undefined) [US20250313563, Compound 119048], the IC50 was 1000 to 5000 nM in assay [1] and 100 to 1000 nM in assay [2].
On the same counts, the results for `CC(C)n1ccc(S(=O)(=O)N2CCC3(CC2)C2=C(N=NC2)NC2=C3C(=O)CC(C)(C)C2)n1` [US20250313563, Compound 947258] are under 100 nM and under 100 nM.
On the same counts, the results for `CCC1(c2cccc(C(F)(F)F)c2)C2=CN=NC2NC2=C1C(=O)CC1(CCCC1)C2` (centres undefined) [US20250313563, Compound 790617] are under 100 nM and under 100 nM.
The matching figures for `CC(=O)N1CC2(C1)C1=C(N=NC1)NC1=C2C(=O)CC(C)(C)C1` [US20250313563, Compound 893314]: 1000 to 5000 nM and over 5000 nM.
As for `CC[C@@]1(c2cccc(-c3ccncc3)c2)C2=CN=NC2NC2=C1C(=O)CC(C)(C)[C@@H]2F` (some centres undefined) [US20250313563, Compound 959344], the IC50 in assay [1] and in assay [2] was over 5000 nM each time.
With `CC[C@]1(c2cccc(-c3ccnc4ccc(OC)cc34)c2)C2=CN=NC2NC2=C1C(=O)NC(C)(C)C2` (some centres undefined) [US20250313563, Compound 948518], the IC50 in assay [1] and in assay [2] was over 5000 nM each time.
Take `CCC1(c2cccc(N(C)C3CC3)c2)C2=CN=NC2NC2=C1C(=O)CC(C)(C)C2` (centres undefined) [US20250313563, Compound 945466]: the IC50 in assay [1] fell in the range of 100 to 1000 nM; in assay [2] it was 1000 to 5000 nM.
On the same counts, the results for `CCC1(c2cccc(-c3cnn(C)c3C)c2)C2=C(CC(C)(C)CC2=O)NC2N=NC(C)=C21` (centres undefined) [US20250313563, Compound 883993] are under 100 nM and under 100 nM.
On the same counts, the results for `CCC1(c2cccc(N3CC4CCC3CC4)c2)C2=CN=NC2NC2=C1C(=O)CC(C)(C)C2` (centres undefined) [US20250313563, Compound 885120] are under 100 nM and 100 to 1000 nM.
On the same counts, the results for `CCC1(c2ccccc2)C2=C(N=NC2)NC2=C1C(=O)C(C)(C)CC2` (centres undefined) [US20250313563, Compound 835310] are 100 to 1000 nM and 1000 to 5000 nM.
In the case of `CC1(C)CC(=O)C2=C(C1)NC1=C(CN=N1)C21CN(c2cccnc2)C1` [US20250313563, Compound 947813], the IC50 in assay [1] and in assay [2] was 1000 to 5000 nM in each case.
With `CCC1(c2ccccc2)C2=C(N=NC2)NC2=C1C(=O)C(C)(C)SC2` (centres undefined) [US20250313563, Compound 862028], the IC50 in assay [1] was in the range of 100 to 1000 nM; in assay [2] it was 1000 to 5000 nM.
Take `CCc1ncc(S(=O)(=O)N2CCC3(CC2)C2=CN=NC2NC2=C3C(=O)NC(C)(C)C2)s1` (centres undefined) [US20250313563, Compound 947837]: the IC50 in assay [1] and in assay [2] was under 100 nM each time.
For the compound `CCC1(c2cccc(C3CCCC3)c2)C2=CN=NC2NC2=C1C(=O)CC(C)(C)C2` (centres undefined) [US20250313563, Compound 949082], the IC50 in assay [1] and in assay [2] was under 100 nM in each case.
Regarding `CCC1(c2cccc(C(F)(F)F)c2)C2=CN=NC2NC2=C1C(=O)N(c1cccc(C)c1)CC2` (centres undefined) [US20250313563, Compound 948052], the IC50 was under 100 nM in assay [1] and 100 to 1000 nM in assay [2].
